Test results from the supplement of paper PMC10307832.

Tests used:
Assay in all cases: relative viability (nuclei count vs DMSO), 5 days (fraction); higher = more cells survive
[1] = compound: Cc1ccc(Nc2nccc(N(C)c3ccc4c(C)n(C)nc4c3)n2)cc1S(N)(=O)=O [Pazopanib] + COc1cccc2cc(-c3nc([C@H]4CC[C@H](C(=O)O)CC4)n4ncnc(N)c34)[nH]c12 [OSI-027] (partner 0.5 µM)
How it was run: (§1)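 Lung cancer cell lines in 1536-well plates were dosed by pin tool the day after seeding, either with one drug alone or with a fixed anchor-drug dose plus five library-drug doses (not always all listed) in √10 steps. After 5 days, cells were fixed and their nuclei stained in one step (final 0.05% Triton X-100, 1% formaldehyde, 1 ug/ml Hoechst), then counted on 4× images. Relative viability is the nuclei count in treated wells divided by that in vehicle wells. Values are medians of duplicate plates.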

[2] = compound: Cc1ccc(C(=O)Nc2ccc(CN3CCN(C)CC3)c(C(F)(F)F)c2)cc1C#Cc1cnc2cccnn12 [Ponatinib] + Nc1ncn([C@H]2C[C@H](O)[C@@H](CO)O2)c(=O)n1 [Decitabine] (partner 2 µM)
How it was run: as §1

[3] = compound: Cc1ccc(C(=O)Nc2ccc(CN3CCN(C)CC3)c(C(F)(F)F)c2)cc1C#Cc1cnc2cccnn12 [Ponatinib] + C[C@@H](Oc1cc(-c2cnn(C3CCNCC3)c2)cnc1N)c1c(Cl)ccc(F)c1Cl [Crizotinib] (partner 1 µM)
How it was run: as §1

[4] = compound: Cc1ccc(C(=O)Nc2ccc(CN3CCN(C)CC3)c(C(F)(F)F)c2)cc1C#Cc1cnc2cccnn12 [Ponatinib] + COc1cccc2cc(-c3nc([C@H]4CC[C@H](C(=O)O)CC4)n4ncnc(N)c34)[nH]c12 [OSI-027] (partner 0.5 µM)
How it was run: as §1

For 201T, the relative viability ([1]; first compound 0.01 µM) was 0.83, the relative viability ([1]; first compound 0.03162 µM) was 0.575 and the relative viability ([1]; first compound 0.1 µM) was 0.799. The relative viability ([1]; first compound 0.3162 µM) was 0.742, the relative viability ([1]; first compound 1 µM) was 0.747 and the relative viability ([2]; first compound 0.002 µM) was 0.849. For the same cell line, the relative viability ([2]; first compound 0.006325 µM) was 0.862, the relative viability ([2]; first compound 0.06325 µM) was 0.914 and the relative viability ([2]; first compound 0.2 µM) was 0.811. For the same cell line, the relative viability ([3]; first compound 0.002 µM) was 1.03, the relative viability ([3]; first compound 0.006325 µM) was 1.07 and the relative viability ([3]; first compound 0.06325 µM) was 1.06. For the same cell line, the relative viability ([3]; first compound 0.2 µM) was 1.02, the relative viability ([4]; first compound 0.002 µM) was 0.622 and the relative viability ([4]; first compound 0.006325 µM) was 0.724. For the same cell line, the relative viability ([4]; first compound 0.06325 µM) was 0.796 and the relative viability ([4]; first compound 0.2 µM) was 0.711.
NCI-H358 gave a relative viability ([1]; first compound 0.01 µM) of 0.843, a relative viability ([1]; first compound 0.03162 µM) of 0.999 and a relative viability ([1]; first compound 0.1 µM) of 0.828. The relative viability ([1]; first compound 1 µM) was 1.03, the relative viability ([2]; first compound 0.002 µM) was 0.193 and the relative viability ([2]; first compound 0.006325 µM) was 0.326. It also gave a relative viability ([2]; first compound 0.06325 µM) of 0.221, a relative viability ([2]; first compound 0.2 µM) of 0.204 and a relative viability ([3]; first compound 0.002 µM) of 0.536. The relative viability ([3]; first compound 0.006325 µM) was 0.512, the relative viability ([3]; first compound 0.06325 µM) was 0.517 and the relative viability ([3]; first compound 0.2 µM) was 0.502. It also gave a relative viability ([4]; first compound 0.002 µM) of 0.813, a relative viability ([4]; first compound 0.006325 µM) of 0.816 and a relative viability ([4]; first compound 0.06325 µM) of 0.998. It also gave a relative viability ([4]; first compound 0.2 µM) of 0.672.
With NCI-H520 the relative viability ([1]; first compound 0.01 µM) was 0.271, the relative viability ([1]; first compound 0.03162 µM) was 0.268 and the relative viability ([1]; first compound 0.1 µM) was 0.259. It also gave a relative viability ([1]; first compound 0.3162 µM) of 0.301, a relative viability ([1]; first compound 1 µM) of 0.262 and a relative viability ([2]; first compound 0.002 µM) of 0.426. The relative viability ([2]; first compound 0.006325 µM) was 0.483, the relative viability ([2]; first compound 0.06325 µM) was 0.45 and the relative viability ([2]; first compound 0.2 µM) was 0.411. It also gave a relative viability ([3]; first compound 0.002 µM) of 0.682, a relative viability ([3]; first compound 0.006325 µM) of 0.843 and a relative viability ([3]; first compound 0.06325 µM) of 0.841. For the same cell line, the relative viability ([3]; first compound 0.2 µM) was 0.581, the relative viability ([4]; first compound 0.002 µM) was 0.273 and the relative viability ([4]; first compound 0.006325 µM) was 0.244. It also gave a relative viability ([4]; first compound 0.06325 µM) of 0.203 and a relative viability ([4]; first compound 0.2 µM) of 0.2.
NCI-H727 was tested, and the relative viability ([1]; first compound 0.01 µM) was 0.462, the relative viability ([1]; first compound 0.03162 µM) was 0.561 and the relative viability ([1]; first compound 0.1 µM) was 0.545. For the same cell line, the relative viability ([1]; first compound 0.3162 µM) was 0.505, the relative viability ([1]; first compound 1 µM) was 0.574 and the relative viability ([2]; first compound 0.002 µM) was 0.909. For the same cell line, the relative viability ([2]; first compound 0.006325 µM) was 1.01, the relative viability ([2]; first compound 0.06325 µM) was 0.838 and the relative viability ([2]; first compound 0.2 µM) was 0.933. For the same cell line, the relative viability ([3]; first compound 0.002 µM) was 0.853, the relative viability ([3]; first compound 0.006325 µM) was 0.686 and the relative viability ([3]; first compound 0.06325 µM) was 0.893. For the same cell line, the relative viability ([3]; first compound 0.2 µM) was 0.765, the relative viability ([4]; first compound 0.002 µM) was 0.567 and the relative viability ([4]; first compound 0.006325 µM) was 0.558. For the same cell line, the relative viability ([4]; first compound 0.06325 µM) was 0.617 and the relative viability ([4]; first compound 0.2 µM) was 0.508.
Work on HCC-15 yielded a relative viability ([1]; first compound 0.01 µM) of 0.622, a relative viability ([1]; first compound 0.03162 µM) of 0.825 and a relative viability ([1]; first compound 0.1 µM) of 0.7. The relative viability ([1]; first compound 0.3162 µM) was 0.669, the relative viability ([1]; first compound 1 µM) was 0.815 and the relative viability ([2]; first compound 0.002 µM) was 0.666. For the same cell line, the relative viability ([2]; first compound 0.006325 µM) was 0.671, the relative viability ([2]; first compound 0.06325 µM) was 0.744 and the relative viability ([2]; first compound 0.2 µM) was 0.634. For the same cell line, the relative viability ([3]; first compound 0.002 µM) was 0.828, the relative viability ([3]; first compound 0.006325 µM) was 0.843 and the relative viability ([3]; first compound 0.06325 µM) was 0.858. It also gave a relative viability ([3]; first compound 0.2 µM) of 0.802, a relative viability ([4]; first compound 0.002 µM) of 0.643 and a relative viability ([4]; first compound 0.006325 µM) of 0.677. It also gave a relative viability ([4]; first compound 0.06325 µM) of 0.843 and a relative viability ([4]; first compound 0.2 µM) of 0.599.
ABC-1 showed a relative viability ([1]; first compound 0.01 µM) of 0.367, a relative viability ([1]; first compound 0.03162 µM) of 0.572 and a relative viability ([1]; first compound 0.3162 µM) of 0.668. For the same cell line, the relative viability ([1]; first compound 1 µM) was 0.579, the relative viability ([2]; first compound 0.002 µM) was 1 and the relative viability ([2]; first compound 0.006325 µM) was 1.03. It also gave a relative viability ([2]; first compound 0.06325 µM) of 1.16, a relative viability ([2]; first compound 0.2 µM) of 0.91 and a relative viability ([3]; first compound 0.002 µM) of 1.24. For the same cell line, the relative viability ([3]; first compound 0.006325 µM) was 1.23, the relative viability ([3]; first compound 0.06325 µM) was 1.08 and the relative viability ([3]; first compound 0.2 µM) was 0.852. The relative viability ([4]; first compound 0.002 µM) was 0.394, the relative viability ([4]; first compound 0.006325 µM) was 0.513 and the relative viability ([4]; first compound 0.06325 µM) was 0.47. For the same cell line, the relative viability ([4]; first compound 0.2 µM) was 0.393.
For LCLC-103H, the relative viability ([1]; first compound 0.01 µM) was 0.495, the relative viability ([1]; first compound 0.03162 µM) was 0.454 and the relative viability ([1]; first compound 0.1 µM) was 0.547. It also gave a relative viability ([1]; first compound 0.3162 µM) of 0.482, a relative viability ([1]; first compound 1 µM) of 0.485 and a relative viability ([2]; first compound 0.002 µM) of 0.713. The relative viability ([2]; first compound 0.006325 µM) was 0.693, the relative viability ([2]; first compound 0.06325 µM) was 0.759 and the relative viability ([2]; first compound 0.2 µM) was 0.722. For the same cell line, the relative viability ([3]; first compound 0.002 µM) was 1.03, the relative viability ([3]; first compound 0.006325 µM) was 1.13 and the relative viability ([3]; first compound 0.06325 µM) was 1.17. The relative viability ([3]; first compound 0.2 µM) was 1.03, the relative viability ([4]; first compound 0.002 µM) was 0.43 and the relative viability ([4]; first compound 0.006325 µM) was 0.382. The relative viability ([4]; first compound 0.06325 µM) was 0.453 and the relative viability ([4]; first compound 0.2 µM) was 0.419.
NCI-H460 showed a relative viability ([1]; first compound 0.01 µM) of 0.601, a relative viability ([1]; first compound 0.03162 µM) of 0.912 and a relative viability ([1]; first compound 0.1 µM) of 0.645. It also gave a relative viability ([1]; first compound 0.3162 µM) of 0.665, a relative viability ([1]; first compound 1 µM) of 0.725 and a relative viability ([2]; first compound 0.002 µM) of 0.533. It also gave a relative viability ([2]; first compound 0.006325 µM) of 0.471, a relative viability ([2]; first compound 0.06325 µM) of 0.559 and a relative viability ([2]; first compound 0.2 µM) of 0.454. For the same cell line, the relative viability ([3]; first compound 0.002 µM) was 0.764, the relative viability ([3]; first compound 0.006325 µM) was 0.863 and the relative viability ([3]; first compound 0.06325 µM) was 1.02. It also gave a relative viability ([3]; first compound 0.2 µM) of 0.908, a relative viability ([4]; first compound 0.002 µM) of 0.605 and a relative viability ([4]; first compound 0.006325 µM) of 0.56. It also gave a relative viability ([4]; first compound 0.06325 µM) of 0.637 and a relative viability ([4]; first compound 0.2 µM) of 0.49.
EPLC-272H gave a relative viability ([1]; first compound 0.03162 µM) of 0.253, a relative viability ([1]; first compound 0.1 µM) of 0.337 and a relative viability ([1]; first compound 0.3162 µM) of 0.336. For the same cell line, the relative viability ([1]; first compound 1 µM) was 0.277, the relative viability ([2]; first compound 0.002 µM) was 0.334 and the relative viability ([2]; first compound 0.006325 µM) was 0.399. It also gave a relative viability ([2]; first compound 0.06325 µM) of 0.416, a relative viability ([2]; first compound 0.2 µM) of 0.326 and a relative viability ([3]; first compound 0.002 µM) of 0.787. The relative viability ([3]; first compound 0.006325 µM) was 0.753, the relative viability ([3]; first compound 0.06325 µM) was 0.886 and the relative viability ([3]; first compound 0.2 µM) was 0.811. It also gave a relative viability ([4]; first compound 0.002 µM) of 0.283, a relative viability ([4]; first compound 0.006325 µM) of 0.278 and a relative viability ([4]; first compound 0.06325 µM) of 0.299. The relative viability ([4]; first compound 0.2 µM) was 0.268.
